Data reported in patent publication US12371428B2 (Exelixis, Inc., priority 2019, dated 2025).
Where a name gives a salt, the structure may show the parent alone.

Key:
[1] = molecular target: Human MET (residues 956-1390) (Homo sapiens (Human), UniProt P08581); assay: Human Met kinase assay, HTRF KinEase (Example D-2); format: biochemical; settings: protocol of Example D-2 (other compounds); read-out: c-Met IC50
Procedure, shortened: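 HTRF KinEase assay on MET residues 956-1390 (0.1 ng/well) in buffer with 5 mM MgCl2, 1 mM DTT and 1 mM MnCl2, with biotinylated peptide substrate, ATP at Km, 10 compound concentrations and 3% DMSO final, run 40 min at room temperature. The […] signal was normalized to DMSO and to 1 μM reference compound, and IC50 came from a 4-parameter logistic fit.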

[2] = molecular target: KDR (phospho-KDR, VEGF165-stimulated HUVEC cells) (Homo sapiens (Human), UniProt P35968); assay: KDR autophosphorylation ELISA in HUVEC cells (Example G); format: cell-based; settings: cellular activity; KDR autophosphorylation ELISA in HUVEC cells
Sequence of KDR (phospho-KDR, VEGF165-stimulated HUVEC cells) (P35968 20-1356): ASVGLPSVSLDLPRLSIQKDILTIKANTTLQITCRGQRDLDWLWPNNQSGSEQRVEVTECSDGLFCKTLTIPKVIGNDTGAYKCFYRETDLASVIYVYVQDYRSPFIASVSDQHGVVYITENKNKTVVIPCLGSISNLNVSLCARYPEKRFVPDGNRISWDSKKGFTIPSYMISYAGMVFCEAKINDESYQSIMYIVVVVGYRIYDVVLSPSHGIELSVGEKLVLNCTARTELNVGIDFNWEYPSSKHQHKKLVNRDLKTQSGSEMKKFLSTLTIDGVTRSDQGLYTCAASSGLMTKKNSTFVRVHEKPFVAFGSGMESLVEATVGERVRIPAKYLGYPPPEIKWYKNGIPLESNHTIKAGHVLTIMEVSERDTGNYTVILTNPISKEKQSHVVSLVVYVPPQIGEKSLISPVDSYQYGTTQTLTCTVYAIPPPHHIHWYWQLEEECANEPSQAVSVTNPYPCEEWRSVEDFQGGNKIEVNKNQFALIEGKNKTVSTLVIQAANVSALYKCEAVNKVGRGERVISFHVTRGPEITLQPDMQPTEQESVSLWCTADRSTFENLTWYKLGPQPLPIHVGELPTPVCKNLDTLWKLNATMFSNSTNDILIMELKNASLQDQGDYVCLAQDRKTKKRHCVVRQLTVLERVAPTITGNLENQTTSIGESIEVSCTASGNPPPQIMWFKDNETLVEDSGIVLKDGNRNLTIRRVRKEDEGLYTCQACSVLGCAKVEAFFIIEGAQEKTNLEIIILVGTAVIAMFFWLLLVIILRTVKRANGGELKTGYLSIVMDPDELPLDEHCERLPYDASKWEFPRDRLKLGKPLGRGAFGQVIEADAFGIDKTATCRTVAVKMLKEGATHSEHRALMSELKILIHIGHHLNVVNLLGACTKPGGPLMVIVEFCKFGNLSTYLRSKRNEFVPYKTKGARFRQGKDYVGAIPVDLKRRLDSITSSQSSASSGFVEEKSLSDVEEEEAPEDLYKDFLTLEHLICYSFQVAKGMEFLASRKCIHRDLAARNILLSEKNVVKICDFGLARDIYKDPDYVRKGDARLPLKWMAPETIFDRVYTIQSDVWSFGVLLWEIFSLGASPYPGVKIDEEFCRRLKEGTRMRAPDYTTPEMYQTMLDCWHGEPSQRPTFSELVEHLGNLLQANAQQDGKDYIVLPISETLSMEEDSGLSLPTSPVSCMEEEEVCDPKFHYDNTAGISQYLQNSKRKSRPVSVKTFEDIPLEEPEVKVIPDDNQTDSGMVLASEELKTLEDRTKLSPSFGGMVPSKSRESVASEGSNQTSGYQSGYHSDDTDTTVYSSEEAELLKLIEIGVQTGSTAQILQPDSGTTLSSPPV
Procedure, shortened: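 First, endothelial cells were cultured a day, then kept without serum for another day. Next came 1 h with serially diluted compound, a brief 5 min VEGF165 stimulus (100 ng/mL), rapid lysis, and ELISA detection of receptor phosphorylation relative to stimulated and non-stimulated controls.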

[3] = molecular target: Human MER (residues 528-999) (Homo sapiens (Human), UniProt Q12866); assay: Human Mer kinase assay, HTRF KinEase (Example C-2); format: biochemical; settings: protocol of Example C-2 (other compounds)
Sequence of Human MER (residues 528-999) (Q12866 528-999): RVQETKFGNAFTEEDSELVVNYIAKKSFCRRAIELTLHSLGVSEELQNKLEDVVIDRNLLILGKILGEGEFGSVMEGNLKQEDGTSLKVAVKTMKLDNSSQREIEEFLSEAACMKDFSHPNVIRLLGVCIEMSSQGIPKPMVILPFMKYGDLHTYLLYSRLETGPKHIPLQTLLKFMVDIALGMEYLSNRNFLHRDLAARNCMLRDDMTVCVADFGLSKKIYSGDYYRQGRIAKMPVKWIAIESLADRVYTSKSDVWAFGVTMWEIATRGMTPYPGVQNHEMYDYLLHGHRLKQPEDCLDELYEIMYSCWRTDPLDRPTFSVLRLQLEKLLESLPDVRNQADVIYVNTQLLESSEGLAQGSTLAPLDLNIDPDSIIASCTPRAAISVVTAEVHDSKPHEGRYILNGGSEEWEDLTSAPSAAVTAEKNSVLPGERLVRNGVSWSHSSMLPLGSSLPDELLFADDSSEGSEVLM
Procedure, shortened: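 HTRF KinEase TK assay with MER 528-999 (1 ng/well) in enzymatic buffer plus 5 mM MgCl2 and 1 mM DTT, biotinylated peptide substrate and ATP at Km (40 μM), 3% DMSO final, 60 min at room temperature. Stopped with EDTA detection mix (SA-XL665, TK antibody-Eu3+), read at 665/620 nm after 60 min; IC50 from 10-point 4-parameter fit, normalized to DMSO and 1 μM reference.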

Sequence of Human MET (residues 956-1390) (P08581 956-1390): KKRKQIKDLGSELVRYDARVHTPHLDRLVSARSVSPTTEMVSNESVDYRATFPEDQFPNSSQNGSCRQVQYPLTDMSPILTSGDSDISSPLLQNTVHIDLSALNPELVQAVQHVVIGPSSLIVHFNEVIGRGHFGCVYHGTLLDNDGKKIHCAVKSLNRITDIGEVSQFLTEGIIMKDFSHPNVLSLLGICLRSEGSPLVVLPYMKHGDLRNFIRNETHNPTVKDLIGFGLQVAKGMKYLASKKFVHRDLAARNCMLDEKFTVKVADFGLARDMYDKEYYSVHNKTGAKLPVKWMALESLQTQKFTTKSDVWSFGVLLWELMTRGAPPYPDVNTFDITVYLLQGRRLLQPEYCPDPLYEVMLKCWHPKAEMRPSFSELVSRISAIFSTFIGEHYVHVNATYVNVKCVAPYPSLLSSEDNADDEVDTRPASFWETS

COc1cnc2c(Oc3ccc(NC(=O)c4ccc(C)n(-c5ccc(F)cc5)c4=O)cc3)ccnc2c1 [Compound 216, 1-(4-Fluorophenyl)-N-[4-[(7-methoxy-1,5-naphthyridin-4-yl)oxy]phenyl]-6-methyl-2-oxopyridine-3-carboxamide]
IC50 [1]: < 100 nM | IC50 [2]: < 100 nM | IC50 [3]: < 100 nM

CCc1nc(C)c(-c2ccc(F)cc2C)c(O)c1C(=O)Nc1ccc(Oc2ccnc3cc(OC)c(OC)nc23)cc1 [Compound 203, N-[4-[(6,7-Dimethoxy-1,5-naphthyridin-4-yl)oxy]phenyl]-2-ethyl-5-(4-fluoro-2-methylphenyl)-4-hydroxy-6-methylpyridine-3-carboxamide]
IC50 [1]: 100 to 300 nM | IC50 [2]: < 100 nM | IC50 [3]: < 100 nM

COc1cnc2c(Oc3ccc(NC(=O)c4cn(C)c(CO)c(-c5ccc(F)cc5)c4=O)cc3)ccnc2c1 [Compound 223, 5-(4-Fluorophenyl)-6-(hydroxymethyl)-N-[4-[(7-methoxy-1,5-naphthyridin-4-yl)oxy]phenyl]-1-methyl-4-oxopyridine-3-carboxamide]
IC50 [1]: < 100 nM | IC50 [2]: > 300 nM | IC50 [3]: < 100 nM

COCCOc1nc2c(Oc3ccc(NC(=O)c4n[nH]c(C)c(-c5ccc(F)cc5C)c4=O)cc3F)ccnc2cc1OC [Compound 252, N-[3-Fluoro-4-[[7-methoxy-6-(2-methoxyethoxy)-1,5-naphthyridin-4-yl]oxy]phenyl]-5-(4-fluoro-2-methylphenyl)-6-methyl-4-oxo-1H-pyridazine-3-carboxamide]
IC50 [1]: < 100 nM | IC50 [2]: < 100 nM | IC50 [3]: < 100 nM

COc1cnc2c(Oc3ccc(NC(=O)c4nnc(C)c(-c5ccc(F)cc5C)c4O)cc3F)ccnc2c1 (single isomer, unassigned) [Compound 249C, N-[3-Fluoro-4-[(7-methoxy-1,5-naphthyridin-4-yl)oxy]phenyl]-5-(4-fluoro-2-methylphenyl)-4-hydroxy-6-methylpyridazine-3-carboxamide]
IC50 [1]: < 100 nM | IC50 [2]: < 100 nM | IC50 [3]: < 100 nM

COc1ccc2nccc(Oc3ccc(NC(=O)c4c(C)ncn(-c5ccc(F)cc5)c4=O)cc3F)c2n1 [Compound 234, N-[3-Fluoro-4-[(6-methoxy-1,5-naphthyridin-4-yl)oxy]phenyl]-1-(4-fluorophenyl)-4-methyl-6-oxopyrimidine-5-carboxamide]
IC50 [1]: > 300 nM | IC50 [2]: 100 to 300 nM | IC50 [3]: < 100 nM

COCCOc1nc2c(Oc3ccc(NC(=O)c4cn(C)c(C)c(-c5ccc(F)cc5)c4=O)cc3F)ccnc2cc1OC [Compound 198, N-[3-Fluoro-4-[[7-methoxy-6-(2-methoxyethoxy)-1,5-naphthyridin-4-yl]oxy]phenyl]-5-(4-fluorophenyl)-1,6-dimethyl-4-oxopyridine-3-carboxamide]
IC50 [1]: < 100 nM | IC50 [2]: < 100 nM | IC50 [3]: < 100 nM

COc1cnc2c(Oc3ccc(NC(=O)c4nnc(C)c(-c5ccc(F)cc5C)c4O)cc3F)ccnc2c1 (single isomer, unassigned) [Compound 249B, N-[3-Fluoro-4-[(7-methoxy-1,5-naphthyridin-4-yl)oxy]phenyl]-5-(4-fluoro-2-methylphenyl)-4-hydroxy-6-methylpyridazine-3-carboxamide]
IC50 [1]: < 100 nM | IC50 [2]: < 100 nM | IC50 [3]: < 100 nM

COCCOc1nc2c(Oc3ccc(NC(=O)c4cn(C)c(CO)c(-c5ccc(F)cc5)c4=O)cc3F)ccnc2cc1OC [Compound 228, N-[3-Fluoro-4-[[7-methoxy-6-(2-methoxyethoxy)-1,5-naphthyridin-4-yl]oxy]phenyl]-5-(4-fluorophenyl)-6-(hydroxymethyl)-1-methyl-4-oxopyridine-3-carboxamide]
IC50 [1]: < 100 nM | IC50 [2]: > 300 nM | IC50 [3]: < 100 nM

COc1cnc2c(Oc3ccc(NC(=O)c4n[nH]c(C)c(-c5ccc(F)cc5C)c4=O)cc3)ccnc2c1 [Compound 248, 5-(4-Fluoro-2-methylphenyl)-N-[4-[(7-methoxy-1,5-naphthyridin-4-yl)oxy]phenyl]-6-methyl-4-oxo-1H-pyridazine-3-carboxamide]
IC50 [1]: < 100 nM | IC50 [2]: > 300 nM | IC50 [3]: < 100 nM

COCc1nc(C)c(-c2ccc(F)cc2C)c(O)c1C(=O)Nc1ccc(Oc2ccnc3cc(OC)c(OC)nc23)c(F)c1 [Compound 191, N-[4-[(6,7-Dimethoxy-1,5-naphthyridin-4-yl)oxy]-3-fluorophenyl]-5-(4-fluoro-2-methylphenyl)-4-hydroxy-2-(methoxymethyl)-6-methylpyridine-3-carboxamide]
IC50 [1]: < 100 nM | IC50 [2]: < 100 nM | IC50 [3]: < 100 nM

COc1ccc(-c2c(C)n(C(C)C)cc(C(=O)Nc3ccc(Oc4ccnc5cc(OC)c(OC)nc45)c(F)c3)c2=O)cc1 [Compound 31, N-[4-[(6,7-dimethoxy-1,5-naphthyridin-4-yl)oxy]-3-fluorophenyl]-5-(4-methoxyphenyl)-6-methyl-4-oxo-1-propan-2-ylpyridine-3-carboxamide hydrochloride]
IC50 [1]: < 100 nM | IC50 [2]: > 300 nM | IC50 [3]: < 100 nM

COc1cc2nccc(Oc3ccc(NC(=O)c4ccc(C)n(-c5ccc(F)cc5)c4=O)cc3)c2nc1OC [Compound 229, N-[4-[(6,7-Dimethoxy-1,5-naphthyridin-4-yl)oxy]phenyl]-1-(4-fluorophenyl)-6-methyl-2-oxopyridine-3-carboxamide]
IC50 [1]: < 100 nM | IC50 [2]: < 100 nM | IC50 [3]: < 100 nM

COCc1nc(C)c(-c2ccc(F)cc2)c(O)c1C(=O)Nc1ccc(Oc2ccnc3cc(OC)cnc23)cc1 [Compound 185, 5-(4-Fluorophenyl)-4-hydroxy-2-(methoxymethyl)-N-[4-[(7-methoxy-1,5-naphthyridin-4-yl)oxy]phenyl]-6-methylpyridine-3-carboxamide]
IC50 [1]: < 100 nM | IC50 [2]: < 100 nM | IC50 [3]: < 100 nM

COc1cc2nccc(Oc3ccc(NC(=O)c4c(C)ncc(-c5ccc(F)cc5)c4O)cc3F)c2nc1OC [Compound 237, N-[4-[(6,7-Dimethoxy-1,5-naphthyridin-4-yl)oxy]-3-fluorophenyl]-5-(4-fluorophenyl)-4-hydroxy-2-methylpyridine-3-carboxamide]
IC50 [1]: < 100 nM | IC50 [2]: < 100 nM | IC50 [3]: < 100 nM

COc1cnc2c(Oc3ccc(NC(=O)c4cnc(CO)c(-c5ccc(F)cc5)c4O)cc3)ccnc2c1 [Compound 218, 5-(4-Fluorophenyl)-4-hydroxy-6-(hydroxymethyl)-N-[4-[(7-methoxy-1,5-naphthyridin-4-yl)oxy]phenyl]pyridine-3-carboxamide]
IC50 [1]: < 100 nM | IC50 [2]: < 100 nM | IC50 [3]: < 100 nM

COCCOc1nc2c(Oc3ccc(NC(=O)c4c(COC)nc(C)c(-c5ccc(F)cc5C)c4O)cc3F)ccnc2cc1OC [Compound 201, N-[3-Fluoro-4-[[7-methoxy-6-(2-methoxyethoxy)-1,5-naphthyridin-4-yl]oxy]phenyl]-5-(4-fluoro-2-methylphenyl)-4-hydroxy-2-(methoxymethyl)-6-methylpyridine-3-carboxamide]
IC50 [1]: < 100 nM | IC50 [2]: < 100 nM | IC50 [3]: < 100 nM

COc1cc2nccc(Oc3ccc(NC(=O)c4cn(C(C)C)c(C)c(-c5ccc(F)cc5C)c4=O)cc3F)c2nc1OC [Compound 32, N-[4-[(6,7-Dimethoxy-1,5-naphthyridin-4-yl)oxy]-3-fluorophenyl]-5-(4-fluoro-2-methylphenyl)-6-methyl-4-oxo-1-propan-2-ylpyridine-3-carboxamide hydrochloride]
IC50 [1]: < 100 nM | IC50 [2]: > 300 nM | IC50 [3]: < 100 nM
